Earlier results in patent US7018649B2 (Euro-Celtique, S.A., priority 2000, dated 2006).

Columns and labels:
[1] = in vivo
[2] = not given; remark: listed apart in the source
[3] = test system: plasma-protein

In the case of `CCOC(=O)C1=C(C)NC(C)=C(C(=O)OC)C1c1cccc(Cl)c1Cl` (racemic) [felodipine, 4-(2,3-dichlorophenyl)-1,4-dihydro-2,6-dimethyl-3,5-pyridinedicarboxylate], the “solubility in dichloromethane and ethanol” value (dichloromethane and ethanol) is given as “freely soluble”, the solubility in water (water) is given as “not soluble” and the “most common adverse side effects” value [1] is given as “peripheral edema and headaches”. For the same compound, the “time to mean peak concentrations” value ([2]; after administration) was 2.5 to 5 h, the “excretion in the feces” value ([2]; after metabolism) was 10% and the “excretion in the urine” value ([2]; after metabolism) was 70%. The “onset of antihypertensive activity” value ([2]; following administration) was 2 to 5 h, the “plasma concentration at steady state” value ([2]; in vivo) was 2 ng/mL and the bioavailability ([2]; oral dose, gastrointestinal absorption) was “approximately 20%”. The plasma-protein bound [3] was 99%.
